# Laboratory results: article PMC9865752, “Design and Synthesis of (Z)-2-(Benzylamino)-5-benzylidenethiazol-4(5H)-one Derivatives as Tyrosinase Inhibitors and Their Anti-Melanogenic and Antioxidant Effects” (Molecules, 2023)
# Like-named read-outs stand apart in the source and are kept apart here.
# Key:
# mushroom tyrosinase [1] = assay: Mushroom tyrosinase inhibition assay; assay type: biochemical; conditions: for IC50: mean ± SEM of three experiments
# Experimental: As mushroom tyrosinase is commercially available and relatively cheap, it is used as a tool for the identification of novel tyrosinase inhibitors. Here, we examined the tyrosinase inhibitory activities of the 14 BABT derivatives against mushroom tyrosinase in the presence of L-tyrosine or L-dopa as substrates.
# Mushroom tyrosinase inhibitory activities of BABT derivatives were determined as described previously, with minor modifications. L-Tyrosine and L-dopa were used as substrates to evaluate the enzyme activity. […] Assay mixtures were incubated at 37 °C for 30 min, and dopachrome amounts synthesized were determined by measuring the optical density of each well at 475 nm using a microplate reader (VersaMax; Molecular Devices, Sunnyvale, CA, USA).
# [2] = DPPH radical scavenging assay; conditions: test samples 500 µM; DPPH 0.18 mM; 30 min in the dark
# Experimental: DPPH is a light-sensitive compound containing free radicals. The DPPH assay is one of the most common methods for evaluating the antioxidant activity of a compound. The effects of BABT derivatives on DPPH radical scavenging activities were evaluated using L-ascorbic acid as a positive reference control. DPPH radical scavenging activities were measured after leaving the mixed samples (test samples of 500 µM plus DPPH solution of 0.18 mM) in the dark for 30 min. To determine the radical scavenging activities, the absorbance of the mixed samples was measured at 517 nm.
# According to previously described methods, with minor modifications, the DPPH radical scavenging activities of BABT derivatives 1–14 were measured. A DPPH (0.2 mM) and methanol solution (180 µL) was mixed with 20 µL of a DMSO solution containing 5 mM BABT derivative, or with 20 µL of an aqueous solution of 5 mM L-ascorbic acid, in each well of a 96-well plate and kept at ambient temperature in the dark for 30 min. The optical density of each well was measured at 517 nm using a microplate reader (VersaMax; Molecular Devices). L-Ascorbic acid was used as a positive reference control, and the DPPH radical scavenging abilities of BABT derivatives were compared with those of L-ascorbic acid. All experiments were performed independently, thrice.
# [3] = ABTS radical scavenging assay; conditions: test samples 100 µM; 2 min in the dark
# Experimental: An antioxidant assay using ABTS is also commonly used to assess the antioxidant activities of compounds. Donation of one electron from ABTS to potassium persulfate generates the ABTS radical cation. An ABTS radical scavenging activity assay was performed using 100 µM of BABT derivatives or Trolox (a positive reference control) by mixing test samples with ABTS radical cations obtained from a reaction of potassium persulfate and ABTS. ABTS radical scavenging activity was assessed by measuring the optical density at 734 nm after leaving the test sample–ABTS radical cation mixture in the dark for 2 min.
# According to a previously described method, with minor modifications, the ABTS radical scavenging activities of BABT derivatives 1–14 were assessed. Briefly, an ABTS radical solution was prepared by mixing 10 mL of aqueous ABTS solution (7 mM) with 10 mL of potassium persulfate aqueous solution (2.45 mM), and the mixture was kept for 11–15 h in the dark at room temperature until the absorbance remained constant. Prior to the antioxidant assay experiments, the ABTS radical solution was diluted with water to adjust the absorbance at 734 nm to 0.70 ± 0.02. A 10 µL aliquot of BABT derivatives or Trolox at a concentration of 1000 µM was added to 90 µL of ABTS+ free radical solution in each well of a 96-well plate and incubated for 2 min in the dark at ambient temperature. The absorbance of each well was measured at 734 nm using a microplate reader (VersaMax; Molecular Devices). The ABTS+ radical scavenging activities of BABT derivatives were compared to those of Trolox. All experiments were carried out independently, thrice.
# [4] = SIN-1-induced ROS scavenging assay; conditions: 20 µM; SIN-1 as ROS generator; DCFH-DA probe
# Description: The scavenging activities of the BABT derivatives 1–14 against ROS and peroxynitrite (ONOO^−) were investigated because the antioxidant activities of the compounds may modulate melanogenesis. To measure the ROS scavenging activities of BABT derivatives, 2′,7′-dichlorodihydrofluorescein diacetate (DCFH-DA) and 3-morpholinosydnonimine (SIN-1) were used as a fluorogenic probe and ROS generator, respectively. The reaction of DCFH-DA with esterase produces 2′,7′-dichlorodihydrofluorescein (DCFH), which generates the fluorescent compound 2′,7′-dichlorofluorescein (DCF) by reacting with ROS produced by SIN-1. Therefore, ROS scavenging activities were determined by measuring the DCF fluorescence remaining after the BABT derivatives scavenged the ROS generated by SIN-1. […] BABT derivatives and Trolox, the positive control, were used at a concentration of 20 µM.
# The ROS scavenging activities of the BABT derivatives were measured using an oxidant-sensitive fluorescent probe. Derivatives or Trolox (10 µL; final concentration: 20 µM) were seeded in a black 96-well plate. Then, 10 µL of SIN-1 (10 µM) was added to induce radical species generation and mixed with 180 µL of sodium phosphate buffer (pH 7.4) containing 12.5 µM DCF-DA and 600 units of esterase. Fluorescence intensity was measured at emission and excitation wavelengths of 535 and 485 nm, respectively, using a fluorescence microplate reader (Berthold Technologies GmbH & Co., Wien, Austria). Trolox was used as the positive control.
# [5] = Peroxynitrite scavenging assay; conditions: 20 µM; SIN-1 as generator; DHR123 probe
# Experimental: The effects of the BABT derivatives on peroxynitrite scavenging activities were also examined using SIN-1 as an RNS generator and dihydrorhodamine (DHR123) as an ROS indicator. DHR123 was converted to fluorescent rhodamine 123 by peroxynitrite generated by SIN-1. Therefore, the peroxynitrite scavenging activities of 1–14 were assessed by measuring the fluorescence of rhodamine 123. BABT derivatives and penicillamine, the positive control, were used at a concentration of 20 µM.
# The peroxynitrite scavenging activities of the BABT derivatives were assessed using the method developed by Kooy, involving the monitoring of highly fluorescent rhodamine 123, which was rapidly produced from non-fluorescent DHR123 in the presence of peroxynitrite. Rhodamine buffer (pH 7.4) was composed of 50 mM sodium phosphate dibasic, 50 mM sodium phosphate monobasic, 90 mM sodium chloride, 5 mM potassium chloride, and 100 µM DTPA. A 10 µL aliquot of BABT derivatives or PCA (final concentration: 20 µM) was seeded in a black 96-well plate. Then, 10 µL of SIN-1 (10 µM) was added to induce radical species generation and mixed with 180 µL of rhodamine buffer. Fluorescence intensity was measured at emission and excitation wavelengths of 535 and 485 nm, respectively, using a fluorescence microplate reader (Berthold Technologies GmbH & Co.). PCA was used as the positive control.
# mushroom tyrosinase [6] = molecular target: mushroom tyrosinase; set-up: method as in PMID 26235587; conditions: in the presence of L-tyrosine; cited from earlier work
# mushroom tyrosinase [7] = molecular target: T1, mushroom tyrosinase (Agaricus bisporus, UniProt C7FF04); assay: Kinetic studies of mushroom tyrosinase inhibition (Lineweaver–Burk and Dixon plots); assay type: biochemical; conditions: substrate L-dopa
# T1 construct: purchased
# T1 sequence (C7FF04 1-392): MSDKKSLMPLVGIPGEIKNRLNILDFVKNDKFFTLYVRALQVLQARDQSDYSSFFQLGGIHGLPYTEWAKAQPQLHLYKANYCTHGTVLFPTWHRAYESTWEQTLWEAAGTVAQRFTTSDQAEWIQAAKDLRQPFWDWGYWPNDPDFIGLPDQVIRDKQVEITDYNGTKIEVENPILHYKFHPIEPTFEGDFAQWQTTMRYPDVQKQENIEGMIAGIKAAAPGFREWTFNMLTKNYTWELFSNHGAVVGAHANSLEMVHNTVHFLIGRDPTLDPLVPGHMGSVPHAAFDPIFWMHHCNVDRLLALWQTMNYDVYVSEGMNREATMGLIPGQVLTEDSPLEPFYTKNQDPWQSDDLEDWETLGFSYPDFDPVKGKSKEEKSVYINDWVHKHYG
# Experimental: Kinetic studies using Lineweaver–Burk plots were performed using four different concentrations (0, 0.5, 1, and 2 µM) of the test derivatives (7 and 8) and five different concentrations (0.5, 1, 2, 4, and 8 mM for 7, and 1, 2, 4, 8, and 16 mM for 8) of L-dopa.
# Lineweaver–Burk plots for 7 and 8 were transformed into the corresponding Dixon plots to determine their inhibition constant (Ki) values for the mushroom tyrosinase–inhibitor complex. […] The Ki values for the mushroom tyrosinase–inhibitor complex were obtained from the x-axis value of each convergence point.
# Lineweaver–Burk plots of derivatives 7 and 8 were obtained in the presence of L-dopa as the substrate. Briefly, 20 µL aliquots of mushroom tyrosinase aqueous solution (200 units/mL) were added to each well of a 96-well plate containing 10 µL BABT derivative (7 or 8) DMSO solution (final concentrations: 0, 0.5, 1, and 2 µM) and 170 µL of an aqueous solution containing L-dopa (final concentrations: 1.0, 2.0, 4.0, 8.0, and 16.0 mM) and sodium phosphate buffer (pH 6.5, 17.2 mM). The initial rate of dopachrome formation was determined by examining the changes in absorbance at a wavelength of 475 nm (ΔOD475/min) using a microplate reader (VersaMax; Molecular Devices).
# B16F10 cells = assay: Cell viability (EZ-Cytox assay); assay type: cell-based, murine; conditions: 0, 1, 2, 5, 10, 20 µM
# Experimental: Before these experiments were performed, the influence of these derivatives on cytotoxicity in B16F10 cells was examined to determine their optimal concentration range for B16F10 cell experiments. The cytotoxicity of derivatives 7 and 8 at six concentrations (0, 1, 2, 5, 10, and 20 µM) was assessed using the EZ-Cytox assay.
# Cytotoxicity assays in B16F10 cells were performed using the EZ-Cytox solution (EZ-3000, DoGenBio, Seoul, Republic of Korea). Briefly, B16F10 cells were seeded at a density of 1 × 10^4 cells per well and cultured at 37 °C in a 5% CO2 atmosphere for 24 h. […] Then, the EZ-Cytox solution (10 μL aliquot) was added to each well. After 2 h of incubation at 37 °C, the optical density of each well was measured at 450 nm using a microplate reader (VersaMax; Molecular Devices).
# [8] = substrate L-tyrosine, read-out: IC50 (µM) L-Tyrosine
IC50 (mushroom tyrosinase [1]; [8]),SMILES,"DPPH radical scavenging activity, % inhibition [2]","ABTS radical scavenging activity, % inhibition [3]",ROS scavenging activity (in words) [4],other results
> 300 µM,"O=C1N=C(NCc2ccccc2)S/C1=C\c1ccc(O)c(O)c1 [Compound 9, (Z)-2-(benzylamino)-5-(3,4-dihydroxybenzylidene)thiazol-4(5H)-one]",89%,87%,strongly reduced the ROS levels enhanced by SIN-1,fold more potent than kojic acid (mushroom tyrosinase [1]; substrate L-dopa): 2 fold; peroxynitrite scavenging activity (in words) [5]: strong ROS and peroxynitrite scavenging activities
,O=C1N=C(Nc2nc3ccccc3s2)S/C1=C\c1ccc(O)cc1O [MHY2081],,,,IC50 (mushroom tyrosinase [6]): 1.8 µM
,"Cc1c(C)c2c(c(C)c1O)CCC(C)(C(=O)O)O2 (stereo not drawn) [Trolox, reference compound]",,99%,reduced the ROS levels enhanced by SIN-1,
10 ± 0.9 µM,"COc1ccc(/C=C2\SC(NCc3ccccc3)=NC2=O)cc1O [Compound 7, (Z)-2-(benzylamino)-5-(3-hydroxy-4-methoxybenzylidene)thiazol-4(5H)-one]",47%,,moderate ROS scavenging activities,"IC50 (mushroom tyrosinase [1]; substrate L-dopa, read-out: IC50 (µM) L-Dopa): 10.3 ± 0.24 µM; fold stronger tyrosinase inhibitory activity than derivative 5 (mushroom tyrosinase [1]; substrate L-tyrosine): 14.8 fold; Ki (mushroom tyrosinase [7]; Dixon plots, read-out: inhibition constant (Ki) for the mushroom tyrosinase–inhibitor complex): 3.1 µM; mode of inhibition (mushroom tyrosinase [7]; Lineweaver–Burk plots): competitive inhibitors; cytotoxicity (B16F10 cells; 72 h): showed cytotoxicity at a concentration of 20 µM; cytotoxicity (B16F10 cells; up to 48 h): not cytotoxic at all concentrations"
